Holding throughout (type): biochemical, Gluconobacter oxydans UV-10
The target in assay [1] is T1, L-sorbose dehydrogenase (Gluconobacter oxydans, UniProt Q47944). Nature of the assay: Effect of metal ions on the enzyme activity. The following applies: for Effect of metal ion on the enzyme activity (in words): summary of Table 6. As for the experimental part: (§1) Enzyme assay was performed at 25° C. by measuring the decrease of absorbance at 600 nm of DCIP spectrophotometrically. One unit of enzyme activity was defined as the amount of enzyme which catalyzed the reduction of 1 μmole of DCIP per minute. The extinction coefficient of DCIP at pH 7.0 was taken as 14.5 mM^-1. The basal reaction mixture is shown below. The mixture was prepared just before the assay.
T1 sequence (Q47944 whole entry): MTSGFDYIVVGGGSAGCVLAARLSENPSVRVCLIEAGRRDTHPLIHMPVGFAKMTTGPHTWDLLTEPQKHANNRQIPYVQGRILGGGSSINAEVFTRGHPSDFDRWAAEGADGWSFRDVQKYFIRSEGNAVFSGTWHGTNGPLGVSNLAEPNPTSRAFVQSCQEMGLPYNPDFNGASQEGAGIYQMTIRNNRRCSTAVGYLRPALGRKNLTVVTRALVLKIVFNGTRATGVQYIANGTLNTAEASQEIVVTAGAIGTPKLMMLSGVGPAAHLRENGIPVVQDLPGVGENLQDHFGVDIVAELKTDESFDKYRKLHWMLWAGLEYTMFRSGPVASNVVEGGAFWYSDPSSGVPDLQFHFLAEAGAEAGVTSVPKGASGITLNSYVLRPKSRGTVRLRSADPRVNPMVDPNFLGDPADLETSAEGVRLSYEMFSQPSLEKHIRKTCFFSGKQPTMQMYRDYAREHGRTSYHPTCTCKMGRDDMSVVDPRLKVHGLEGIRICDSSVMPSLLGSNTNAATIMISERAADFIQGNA
(§2) A cuvette with 1 cm light path contained 0.4 ml of basal mixture, 0.1 ml of 1M L-sorbose, enzyme solution, and water in a final volume of 0.51 ml. A reference cuvette contains all components except the substrate. The reaction was initiated by the addition of the substrate. Enzyme activity was measured as the initial reduction rate of DCIP.
Using the assay procedure described under (1) above, the effect of various metal ions on the enzyme activity was examined. Co^2+ and Fe^3+ were stimulative and Cu^2+ was inhibitory.

Assay [2] concerns the target T1, L-sorbose dehydrogenase. Nature of the assay: Measurement of the Km value for L-sorbose. The settings on record: L-sorbose 0.5 mM to 320 mM. As for the experimental part: as §1, §2
In the procedure described under (2) above, the velocities of oxidising reactions with varying concentrations of L-sorbose from 0.5 mM to 320 mM were measured to determine the Km value for L-sorbose. The maximum reaction velocity was found at the substrate concentration of about 200 mM. Apparent Michaelis constant (Km) was calculated to be 102±10 mM with DCIP as an electron acceptor.

In assay [3] the target is T1, L-sorbose dehydrogenase. The settings on record: 0.1 ml of 1M substrate solution instead of L-sorbose, DCIP, 25° C., pH 7.0. As to the method:
as §1, §2
Substrate specificity of the enzyme was determined using the same enzyme assay method as described in the above (1) except that 0.1 ml of each of the various substrate solutions (1M) was used instead of L-sorbose.

The target in assay [4] is T1, L-sorbose dehydrogenase. In words: biochemical. The settings on record: for Effect of inhibitor on the enzyme activity (in words): summary of Table 7. As for the experimental part: Enzyme assay was performed at 25° C. by measuring the decrease of absorbance at 600 nm of DCIP spectrophotometrically. One unit of enzyme activity was defined as the amount of enzyme which catalyzed the reduction of 1 μmole of DCIP per minute. […] The basal reaction mixture is shown below. The mixture was prepared just before the assay.
as §2

In the case of `O.O.O.O.[Cl][Mn][Cl]` [MnCl2 · 4H2 O], the “Relative activity (%)” value at L-sorbose dehydrogenase [1] (metal 0.4 mM) is on record as 100%; on L-sorbose dehydrogenase [1] (metal 0.9 mM), 98.3%.

Take `[Cu+2]` [Cu^2+]: on L-sorbose dehydrogenase [1], the “Effect of metal ion on the enzyme activity (in words)” value (“Effect of metal ion” below) is given as “inhibitory”. Turning to `O=C(CO)[C@@H](O)[C@H](O)[C@@H](O)CO` [Sorbose, L-sorbose], the “Substrate concentration of maximum reaction velocity” value on L-sorbose dehydrogenase [2] is “about 200 mM”. Consider `O.O.[Na+].[Na+].[O]=[Mo](=[O])([O-])[O-]` [Na2 MoO4 · 2H2 O], for which the “Relative activity (%)” value on L-sorbose dehydrogenase [1] (metal 0.3 mM) worked out at 86.1%; at L-sorbose dehydrogenase [1] (metal 1.06 mM), 69.6%. `O.O.O.O.O.O.O.O=S(=O)([O-])[O-].[Zn+2]` [ZnSO4 · 7H2 O]: the “Relative activity (%)” value on L-sorbose dehydrogenase [1] (metal 0.4 mM) and on L-sorbose dehydrogenase [1] (metal 0.9 mM) was 100% each time.

For the compound `O.O.O.O.O.O.O.O=S(=O)([O-])[O-].[Mg+2]` [MgSO4 · 7H2 O], the “Relative activity (%)” value on L-sorbose dehydrogenase [1] (metal 0.4 mM) and at L-sorbose dehydrogenase [1] (metal 0.8 mM) was 100% each time. For `O.O.O.O.O.O.O=S(=O)([O-])[O-].[Ni+2]` [NiSO4 · 6H2 O], the “Relative activity (%)” value on L-sorbose dehydrogenase [1] (metal 0.4 mM) and on L-sorbose dehydrogenase [1] (metal 0.9 mM) was 100% each time.

Turning to `[Ca+2].[Cl-].[Cl-]` [CaCl2], the “Relative activity (%)” value on L-sorbose dehydrogenase [1] (metal 0.4 mM) and at L-sorbose dehydrogenase [1] (metal 0.8 mM) was 100% throughout. In the case of `O=C([O-])[C@@H](O)[C@H](O)[C@@H](O)[C@H](O)CO.O=C([O-])[C@@H](O)[C@H](O)[C@@H](O)[C@H](O)CO.[Ca+2]` [Ca-Idonate], on L-sorbose dehydrogenase [3], the “Relative enzyme activity (%)” value came to 0%. As to `O.O.O.O.O.O.[Cl-].[Cl-].[Mg+2]` [MgCl2 · 6H2 O], on L-sorbose dehydrogenase [1] (metal 0.8 mM), the “Relative activity (%)” value is listed as 83.3%. On to `O=C(O)CN(CCN(CC(=O)O)CC(=O)O)CC(=O)O` [EDTA], for which, at L-sorbose dehydrogenase [4], testing at 940 µM gave an inhibition of 0% and the inhibition at 5200 µM is 13.3%. For `[F-].[Na+]` [Sodium Fluoride], the “Inhibition (%)” value at L-sorbose dehydrogenase [4] (inhibitor 1.85 mM) is on record as 10.3%; at L-sorbose dehydrogenase [4] (inhibitor 4.24 mM), 10.3%; on L-sorbose dehydrogenase [4] (inhibitor 9.37 mM), 22.1%. For the same compound, the “Effect of inhibitor on the enzyme activity (in words)” value (shortened to “Effect of inhibitor”) on L-sorbose dehydrogenase [4] is “inhibited the enzyme activity partially”. Take `O=C(O)c1cc[c]([Hg][Cl])cc1` [PCMB, p-chloro-mercuri-benzoate]: the “Inhibition (%)” value on L-sorbose dehydrogenase [4] (inhibitor 0.02 mM), at L-sorbose dehydrogenase [4] (inhibitor 0.04 mM) and on L-sorbose dehydrogenase [4] (inhibitor 0.17 mM) was 0% throughout. Turning to `O.O.[Cl][Cu][Cl]` [CuCl2 · 2H2 O], the “Relative activity (%)” value at L-sorbose dehydrogenase [1] (metal 0.4 mM) amounted to 0%.

Take `O.O=S(=O)([O-])[O-].[Mn+2]` [MnSO4 · H2 O]: the “Relative activity (%)” value on L-sorbose dehydrogenase [1] (metal 0.4 mM) was 100%.

For the compound `O.O.O.O.O.O.[Cl-].[Cl-].[Co+2]` [CoC1 · 6H2O], the “Relative activity (%)” value is given as 109.2% at L-sorbose dehydrogenase [1] (metal 0.4 mM) and 118.4% on L-sorbose dehydrogenase [1] (metal 0.8 mM). With `C=C[C@H]1C[N@@]2CC[C@H]1C[C@H]2[C@H](O)c1ccnc2ccc(OC)cc12` [Quinine], at L-sorbose dehydrogenase [4], at 1850 µM the inhibition was 0%, the inhibition at 4240 µM was 30.5% and the “Effect of inhibitor” value is recorded as “inhibited the enzyme activity partially”. As to `[Co+2]` [Co^2+], the “Effect of metal ion” value at L-sorbose dehydrogenase [1] is given as “stimulative”.

With `O.O=[N+]([O-])[O-].O=[N+]([O-])[O-].[Cu+2]` [Cu(NO3)2 · H2 O], the “Relative activity (%)” value at L-sorbose dehydrogenase [1] (metal 0.3 mM) is given as 2.27%.

With Fe(SO4)3 .multidot. xH2 O, the “Relative activity (%)” value turned out to be 121.3% at L-sorbose dehydrogenase [1] (metal 0.4 mM) and 106.4% at L-sorbose dehydrogenase [1] (metal 0.9 mM). On to `O=C(O)CI` [Mono-Iodo acetate], for which, at L-sorbose dehydrogenase [4], the inhibition at 1850 µM is 0%, testing at 4240 µM gave an inhibition of 34.6%, the inhibition at 9370 µM worked out at 68.5% and the “Effect of inhibitor” value is “inhibited the enzyme activity partially”. As to `[Fe+3]` [Fe^3+], the “Effect of metal ion” value on L-sorbose dehydrogenase [1] was “stimulative”.

For `O.O.O.O.O.O.O.O=[As]([O-])([O-])O.[Na+].[Na+]` [Na2 HAs · O4 · 7H2 O], the “Inhibition (%)” value on L-sorbose dehydrogenase [4] (inhibitor 1.85 mM) and on L-sorbose dehydrogenase [4] (inhibitor 4.24 mM) was 0% throughout.

Consider TiCl, for which the “Relative activity (%)” value on L-sorbose dehydrogenase [1] (metal 0.4 mM), on L-sorbose dehydrogenase [1] (metal 0.8 mM) and on L-sorbose dehydrogenase [1] (metal 1.8 mM) was 100% throughout. At L-sorbose dehydrogenase [4], `[N-]=[N+]=[N-]` [Sodium Azide] yielded an inhibition at 1850 µM of 0% and an inhibition at 4240 µM of 0%. As to `O.O.O.O.O.O=S(=O)([O-])[O-].[Cu+2]` [CuSO4 · 5H2 O], the “Relative activity (%)” value on L-sorbose dehydrogenase [1] (metal 0.08 mM) is 30.9%. Consider `O=C(O)CF` [Sodium Fluoro acetate], for which, at L-sorbose dehydrogenase [4], testing at 1850 µM gave an inhibition of 0%, testing at 4240 µM gave an inhibition of 8.6%, testing at 9370 µM gave an inhibition of 26.5% and the “Effect of inhibitor” value is listed as “inhibited the enzyme activity partially”. On L-sorbose dehydrogenase [4], `CCN1C(=O)C=CC1=O` [N-Ethyl-maleimide] displayed an inhibition at 1850 µM of 0% and an inhibition at 4240 µM of 0%.

For the compound `O=S(=O)([O-])[O-].[Cu+2]` [CuSO4], the “Relative activity (%)” value at L-sorbose dehydrogenase [1] (metal 0.8 mM) stood at 0%.

One may read the inhibition as the drop in the measured response relative to a control, in per cent. Read a low inhibition as little suppression.

For the origin of these results see patent publication US4916069A, “Enzyme and process for producing the same” (priority 1986, dated 1990).
